Measured values taken from US11459318B2, “Pesticidally active pyrrole derivatives” (Syngenta Participations AG, priority 2017, dated 2022).
Where two headings read alike, the source gives them in different places.

How the values were obtained:
Type in all cases: in vivo
[1] = test system: Tetranychus urticae (Two-spotted spider mite); assay: Tetranychus urticae (Two-spotted spider mite): Feeding/contact activity; conditions: foliar, 192 h, read-out: control (mortality)
Protocol: Tetranychus urticae (Two-spotted spider mite): Feeding/contact activity
Bean leaf discs on agar in 24-well microtiter plates were sprayed with aqueous test solutions prepared from 10,000 ppm DMSO stock solutions. After drying the leaf discs were infested with a mite population of mixed ages. The samples were assessed for mortality on mixed population (mobile stages) 8 days after infestation.

[2] = test system: Spodoptera littoralis (Egyptian cotton leaf worm); assay: Spodoptera littoralis (Egyptian cotton leaf worm): Feeding/contact activity; conditions: foliar, 72 h, read-out: control (mortality)
Protocol: Spodoptera littoralis (Egyptian cotton leaf worm): Feeding/contact activity Cotton leaf discs were placed onto agar in 24-well microtiter plates and sprayed with aqueous test solutions prepared from 10,000 ppm DMSO stock solutions. After drying the leaf discs were infested with five L1 larvae. The samples were assessed for mortality 3 days after infestation.

[3] = test system: Plutella xylostella (Diamond back moth); assay: Plutella xylostella (Diamond back moth): Feeding/contact activity; conditions: 120 h, application rate of 200 ppm, L2 larvae on artificial diet, assessed 5 days after infestation, read-out: control (mortality)
Protocol: Plutella xylostella (Diamond back moth): Feeding/contact activity
24-well microtiter plates with artificial diet were treated with aqueous test solutions prepared from 10,000 ppm DMSO stock solutions by pipetting. After drying, the plates were infested with L2 larvae (10 to 15 per well). The samples were assessed for mortality 5 days after infestation.

[4] = test system: Myzus persicae (Green peach aphid); assay: Myzus persicae (Green peach aphid): Feeding/Contact activity; conditions: foliar, 144 h, read-out: control (mortality)
Protocol: Myzus persicae (Green peach aphid): Feeding/Contact activity Sunflower leaf discs were placed onto agar in a 24-well microtiter plate and sprayed with aqueous test solutions prepared from 10,000 ppm DMSO stock solutions. After drying, the leaf discs were infested with an aphid population of mixed ages. The samples were assessed for mortality 6 days after infestation.

[5] = test system: Euschistus heros (Neotropical Brown Stink Bug); assay: Euschistus heros (Neotropical Brown Stink Bug): Feeding/contact activity; conditions: 120 h, read-out: control (mortality)
Protocol: Euschistus heros (Neotropical Brown Stink Bug): Feeding/contact activity Soybean leaves on agar in 24-well microtiter plates were sprayed with aqueous test solutions prepared from 10,000 ppm DMSO stock solutions. After drying the leaves were infested with N2 nymphs. The samples were assessed for mortality 5 days after infestation.

[6] = test system: Diabrotica balteata (Corn root worm); assay: Diabrotica balteata (Corn root worm), maize sprouts sprayed, L2 larvae mortality; conditions: 96 h, application rate of 200 ppm, L2 larvae on maize sprouts, assessed 4 days after infestation, read-out: control (mortality)
Protocol: Diabrotica balteata (Corn root worm):
Maize sprouts placed onto an agar layer in 24-well microtiter plates were treated with aqueous test solutions prepared from 10,000 ppm DMSO stock solutions by spraying. After drying, the plates were infested with L2 larvae (6 to 10 per well). The samples were assessed for mortality 4 days after infestation.

[7] = application rate of 200 ppm, mite population of mixed ages (mobile stages) on bean leaf discs, assessed 8 days after infestation
[8] = application rate of 200 ppm, L1 larvae on cotton leaf discs, assessed 3 days after infestation
[9] = application rate of 200 ppm, aphid population of mixed ages on sunflower leaf discs, assessed 6 days after infestation
[10] = application rate of 200 ppm, N2 nymphs on soybean leaves, assessed 5 days after infestation

Measured: mortality at 200 ppm

Cn1c(-n2cc(-c3ccc(Cl)c(C(=O)NC4(C#N)CC4)c3)cn2)ccc1C(F)(C(F)(F)F)C(F)(F)F [Compound 1, 2-chloro-N-(1-cyanocyclopropyl)-5-[1-[1-methyl-5-[1,2,2,2-tetrafluoro-1-(trifluoromethyl)ethyl]pyrrol-2-yl]pyrazol-4-yl]benzamide]
≥ 80%: [1]; [7] | [2]; [8] | [3] | [4]; [9] | [5]; [10] | [6]

Cn1c(C(F)(C(F)(F)F)C(F)(F)F)cc(Br)c1-n1cc(-c2ccc(Cl)c(C(=O)NC3CC3)c2)cn1 [Compound 3, 5-[1-[3-bromo-1-methyl-5-[1,2,2,2-tetrafluoro-1-(trifluoromethyl)ethyl]pyrrol-2-yl]pyrazol-4-yl]-2-chloro-N-cyclopropyl-benzamide]
≥ 80%: [1]; [7] | [2]; [8] | [3] | [5]; [10] | [6]

CN(C(=O)c1cc(-c2cnn(-c3c(Br)cc(C(F)(C(F)(F)F)C(F)(F)F)n3C)c2)ccc1Cl)C1CC1 [Compound 4, 5-[1-[3-bromo-1-methyl-5-[1,2,2,2-tetrafluoro-1-(trifluoromethyl)ethyl]pyrrol-2-yl]pyrazol-4-yl]-2-chloro-N-cyclopropyl-N-methyl-benzamide]
≥ 80%: [1]; [7] | [2]; [8] | [3] | [4]; [9] | [5]; [10] | [6]

Cn1c(-c2cc(-c3ccc(Cl)c(C(=O)NC4(C#N)CC4)c3)on2)ccc1C(F)(C(F)(F)F)C(F)(F)F [Compound 5, 2-chloro-N-(1-cyanocyclopropyl)-5-[3-[1-methyl-5-[1,2,2,2-tetrafluoro-1-(trifluoromethyl)ethyl]pyrrol-2-yl]isoxazol-5-yl]benzamide]
≥ 80%: [1]; [7] | [2]; [8] | [3] | [5]; [10] | [6]

Cn1c(C(F)(C(F)(F)F)C(F)(F)F)cc([N+](=O)[O-])c1-n1cc(-c2ccc(Cl)c(C(=O)NC3(C#N)CC3)c2)cn1 [Compound 7, 2-chloro-N-(1-cyanocyclopropyl)-5-[1-[1-methyl-3-nitro-5-[1,2,2,2-tetrafluoro-1-(trifluoromethyl)ethyl]pyrrol-2-yl]pyrazol-4-yl]benzamide]
≥ 80%: [2]; [8]

N#CCn1c(C(F)(C(F)(F)F)C(F)(F)F)cc(Br)c1-n1cc(-c2ccc(Cl)c(C(=O)NC3(C#N)CC3)c2)cn1 [Compound 13, 5-[1-[3-bromo-1-(cyanomethyl)-5-[1,2,2,2-tetrafluoro-1-(trifluoromethyl)ethyl]pyrrol-2-yl]pyrazol-4-yl]-2-chloro-N-(1-cyanocyclopropyl)benzamide]
≥ 80%: [1]; [7] | [2]; [8] | [3] | [5]; [10] | [6]

Cn1c(Br)c(Br)c(Br)c1-n1cc(-c2ccc(Cl)c(C(=O)NC3(C#N)CC3)c2)cn1 [Compound 15, 2-chloro-N-(1-cyanocyclopropyl)-5-[1-(3,4,5-tribromo-1-methyl-pyrrol-2-yl)pyrazol-4-yl]benzamide]
≥ 80%: [2]; [8] | [3] | [6]

Cn1c(C(F)(F)C(F)(F)F)cc(Br)c1-n1cc(-c2ccc(Cl)c(C(=O)NC3(C#N)CC3)c2)cn1 [Compound 31, 5-[1-[3-bromo-1-methyl-5-(1,1,2,2,2-pentafluoroethyl)pyrrol-2-yl]pyrazol-4-yl]-2-chloro-N-(1-cyanocyclopropyl)benzamide]
≥ 80%: [1]; [7] | [4]; [9] | [5]; [10] | [6]

Cn1c(SC(F)(F)F)cc(Cl)c1-n1cc(-c2ccc(Cl)c(C(=O)NC3(C#N)CC3)c2)cn1 [Compound 32, 2-chloro-5-[1-[3-chloro-1-methyl-5-(trifluoromethylsulfanyl)pyrrol-2-yl]pyrazol-4-yl]-N-(1-cyanocyclopropyl)benzamide]
≥ 80%: [1]; [7] | [2]; [8] | [4]; [9] | [5]; [10] | [6]

CC(=O)N(C(=O)c1cc(-c2cnn(-c3ccc(C(F)(C(F)(F)F)C(F)(F)F)n3C3CC3)c2)ccc1Cl)C(C)(C)C#N [Compound 35, N-acetyl-2-chloro-N-(1-cyano-1-methyl-ethyl)-5-[1-[1-cyclopropyl-5-[1,2,2,2-tetrafluoro-1-(trifluoromethyl)ethyl]pyrrol-2-yl]pyrazol-4-yl]benzamide]
≥ 80%: [1]; [7] | [2]; [8] | [4]; [9] | [5]; [10]

CC(=O)N(C(=O)c1cc(-c2cnn(-c3ccc(C(F)(C(F)(F)F)C(F)(F)F)n3C3CC3)c2)ccc1Cl)C1(C#N)CC1 [Compound 36, N-acetyl-2-chloro-N-(1-cyanocyclopropyl)-5-[1-[1-cyclopropyl-5-[1,2,2,2-tetrafluoro-1-(trifluoromethyl)ethyl]pyrrol-2-yl]pyrazol-4-yl]benzamide]
≥ 80%: [1]; [7] | [2]; [8] | [3] | [4]; [9] | [5]; [10]

CC(C)(C#N)NC(=O)c1cc(-c2cnn(-c3ccc(C(F)(C(F)(F)F)C(F)(F)F)n3C3CC3)c2)ccc1Cl [Compound 37, 2-chloro-N-(1-cyano-1-methyl-ethyl)-5-[1-[1-cyclopropyl-5-[1,2,2,2-tetrafluoro-1-(trifluoromethyl)ethyl]pyrrol-2-yl]pyrazol-4-yl]benzamide]
≥ 80%: [1]; [7] | [2]; [8] | [3] | [4]; [9] | [5]; [10]

CN(C(=O)c1cc(-c2cnn(-c3ccc(C(F)(C(F)(F)F)C(F)(F)F)n3C3CC3)c2)ccc1Cl)C1(C#N)CC1 [Compound 38, 2-chloro-N-(1-cyanocyclopropyl)-5-[1-[1-cyclopropyl-5-[1,2,2,2-tetrafluoro-1-(trifluoromethyl)ethyl]pyrrol-2-yl]pyrazol-4-yl]-N-methyl-benzamide]
≥ 80%: [1]; [7] | [2]; [8] | [3] | [4]; [9] | [5]; [10]

COC(=O)N(C(=O)c1cc(-c2cnn(-c3ccc(C(F)(C(F)(F)F)C(F)(F)F)n3C3CC3)c2)ccc1Cl)C1(C#N)CC1 [Compound 39, methyl N-[2-chloro-5-[1-[1-cyclopropyl-5-[1,2,2,2-tetrafluoro-1-(trifluoromethyl)ethyl]pyrrol-2-yl]pyrazol-4-yl]benzoyl]-N-(1-cyanocyclopropyl)carbamate]
≥ 80%: [1] | [2] | [4] | [5]; in Glycine max

N#CC1(NC(=O)c2cc(-c3cnn(-c4ccc(C(F)(C(F)(F)F)C(F)(F)F)n4C4CC4)c3)ccc2Cl)CC1 [Compound 40, 2-chloro-N-(1-cyanocyclopropyl)-5-[1-[1-cyclopropyl-5-[1,2,2,2-tetrafluoro-1-(trifluoromethyl)ethyl]pyrrol-2-yl]pyrazol-4-yl]benzamide]
≥ 80%: [1]; [7] | [2]; [8] | [3] | [5]; [10]

N#CC1(NC(=O)c2cc(-c3cnn(-c4c(Br)c(Br)c(SC(F)(F)F)n4C4CC4)c3)ccc2Cl)CC1 [Compound 41, 2-chloro-N-(1-cyanocyclopropyl)-5-[1-[3,4-dibromo-1-cyclopropyl-5-(trifluoromethylsulfanyl)pyrrol-2-yl]pyrazol-4-yl]benzamide]
≥ 80%: [1]; [7] | [2]; [8] | [3] | [5]; [10] | [6]
